SMILES strings stand for the structures. Some results are limits rather than exact numbers.

Data set [1] has as its target T1, KCC2 (Homo sapiens, UniProt Q9H2X9).
T1 construct: expressed in transfected cells; host or cells: HEK-293 (ATCC CRL-1573)
T1 sequence (Q9H2X9 1-1116 isoform Q9H2X9-2): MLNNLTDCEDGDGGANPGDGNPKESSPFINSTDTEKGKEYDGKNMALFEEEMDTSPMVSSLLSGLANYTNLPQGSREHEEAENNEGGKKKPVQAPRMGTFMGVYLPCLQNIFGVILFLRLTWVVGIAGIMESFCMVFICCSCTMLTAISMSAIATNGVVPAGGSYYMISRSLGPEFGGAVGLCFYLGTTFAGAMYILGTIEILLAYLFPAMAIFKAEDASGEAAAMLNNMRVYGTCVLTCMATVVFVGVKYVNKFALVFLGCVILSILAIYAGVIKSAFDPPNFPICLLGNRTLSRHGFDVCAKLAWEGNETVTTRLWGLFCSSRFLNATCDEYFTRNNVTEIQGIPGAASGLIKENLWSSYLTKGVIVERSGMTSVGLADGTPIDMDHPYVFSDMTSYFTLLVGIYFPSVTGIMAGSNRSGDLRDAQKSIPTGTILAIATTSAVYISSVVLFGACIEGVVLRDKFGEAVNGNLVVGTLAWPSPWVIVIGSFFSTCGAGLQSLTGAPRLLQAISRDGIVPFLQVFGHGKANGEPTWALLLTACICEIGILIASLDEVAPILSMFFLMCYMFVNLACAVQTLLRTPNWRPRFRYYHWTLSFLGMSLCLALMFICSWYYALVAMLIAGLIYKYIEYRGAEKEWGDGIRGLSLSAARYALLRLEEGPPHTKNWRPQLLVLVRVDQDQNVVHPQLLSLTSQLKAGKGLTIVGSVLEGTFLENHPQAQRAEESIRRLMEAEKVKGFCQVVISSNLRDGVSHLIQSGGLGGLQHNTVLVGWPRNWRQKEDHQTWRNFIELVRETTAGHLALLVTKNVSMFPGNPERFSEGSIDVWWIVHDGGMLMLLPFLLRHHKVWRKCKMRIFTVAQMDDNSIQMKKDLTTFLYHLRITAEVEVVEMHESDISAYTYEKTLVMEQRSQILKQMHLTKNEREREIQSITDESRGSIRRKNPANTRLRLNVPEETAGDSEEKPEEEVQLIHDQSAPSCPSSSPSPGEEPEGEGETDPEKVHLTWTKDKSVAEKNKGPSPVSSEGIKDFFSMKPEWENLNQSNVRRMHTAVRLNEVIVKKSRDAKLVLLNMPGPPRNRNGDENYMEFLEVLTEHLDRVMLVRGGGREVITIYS
Nature of the data set: cellular thermal shift assay (CETSA) in HEK-293 cells expressing KCC2. The class given is binding. On the procedure:
Cell Culture and biotinylation. HEK-293 cells were purchased from ATCC (CRL-1573) and transfected with human KCC2 and GFP expression plasmids using Lipofectamine 2000. Cells were utilized for experimentation 48-72 h following transfection. Cells were biotinylated at 4° C. using NHS-Biotin. Following lysis and purification on immobilized avidin beads, cell surface and total fractions were subject to immunoblotting as outlined previously (Conway et al., 2017, supra).
Determining if compounds in SSA directly interact with KCC2. This was tested using a cellular thermal shift assay (CETSA), which measures the ability of a drug to modify the thermal stability of its target in whole cells (Kawatkar et al., ACS Chem. Biol. 14, 1913-1920 (2019); Martinez et al., Sci Rep 8, 9472 (2018)).
2×10^6 transfected HEK-293 cells were incubated with 30 μM drug or vehicle for 90 min at 37° C. and then heated from 37-58° C. for 5 min. Cells were rapidly chilled to 25° C. and NP40 was added to a final concentration […] to snap freezing in liquid nitrogen. […]
Aliquots of HEK-293 cells expressing KCC2 were exposed to 30 μM SSA, heated from 37-55° C. The remaining level of soluble native KCC2 at each temperature was measured by immunoblotting and normalized to the level seen at 37° C. which was given a value of 1. […]

The test system of data set [2] is 18-20 Div hippocampal neurons. Kind of data set: gramicidin-perforated patch-clamp recording of EGABA in hippocampal neurons. It is filed as cell-based, Sprague Dawley. The settings on record: 300 nM. The procedure: Neuronal Cultures. Hippocampal neurons were prepared from Sprague Dawley E18 embryos and plated at 450,000 per dish and maintained at 37° C. in a humidified 5% CO2 incubator for 10-25 days before experimentation (Lee et al., Nat. Neurosci. 14, 736-743 (2011)).
At this developmental stage, GABAAR receptor activation leads to hyperpolarization, a phenomenon critically dependent upon KCC2 (Kontou et al., J Biol Chem, 100364 (2021)).
Neuronal Patch clamp assays. Neuronal cell culture recordings were performed in bath saline at 34° C. For gramicidin perforated-patch experiments, pipettes contained (in mM): 140 KCl and 10 HEPES, pH 7.4 KOH. For whole-cell experiments, pipettes contained (in mM): 115 K-meth-SO4, 30 KCl, 2 Mg-ATP, 4 Na-ATP, 0.4 Na-GTP, and 10 HEPES, pH 7.4 KOH. Bath saline contained the following (in mM): 140 NaCl, 2.5 KCl, 2.5 CaCl2, 2.5 MgCl2, 10 HEPES, and 11 glucose, pH 7.4 NaOH (Kontou et al., 2021, supra). All compound solutions were applied to cells using a three-barreled 700 μm pipe positioned just above the cell (Warner Instruments). […] All voltages from whole-cell experiments were corrected offline using a calculated liquid junction potential value (13.6 mV) in Clampex (Molecular Devices). For gramicidin perforated-patch experiments, intracellular Cl^− values were back-calculated using measured EGABA values and the Nernst equation: […]
Background: In patch-clamp work, channel activity is measured electrically.

Data set [3] is described as follows: PK studies, brain and plasma levels by LC-MS/MS. The class given is in vivo. Conditions: mice. The procedure: PK studies. […] Plasma and brain samples were rapidly frozen on dry ice.
Drug accumulation in the brain was examined following SC injection (FIG. 4C; 50 mg/kg).

Regarding `C[C@@H]1CN(c2nc3c(c(Nc4ccc(C5CCCCC5)cc4)n2)COC3)CCO1` [Compound A, (R)—N-(4-cyclohexylphenyl)-2-(2-methylmorpholino)-5,7-dihydrofuro[3,4-d]pyrimidin-4-amine], in data set [1], the “direct binding to KCC2 as measured using CETSA” value was “capable of directly binding to KCC2”. Besides, the “reduction in neuronal Cl−” value in data set [2] (15 min, calculated from EGABA) was 2.2 ± 0.6 mM. Also, in data set [2] (at 15 min (from −75±3.1 at 0 min), bumetanide and TTX present), the EGABA after treatment was −85.1±4.2 mV. Also, the “time at which accumulation in the brain was evident” value in data set [3] (25 mg/kg IV bolus) was at most 30 min. Besides, in data set [3] (SC 50 mg/kg), the “brain level 8 h later” value was “maintained”, the “time at which accumulation in the brain was detected” value is on record as 30 min and the “time of maximal concentration in the brain” value came to 4 h.
